Results reported in US11400058B2, “Intravenous formulations of coenzyme Q10 (CoQ10) and methods of use thereof” (Berg LLC, priority 2010, dated 2022).
Marks after values point to notes of the source that are not given here.

Assay: 4-week repeat-dose toxicology study in rats with 2-week recovery (Study 20000328)
Details: for Died or Sacrificed Moribund: animals of 15
[1] = 62.5 mg/kg M, end of dosing, animals of 10
[2] = 62.5 mg/kg M, end of recovery, animals of 5
[3] = 125 mg/kg F, end of dosing, animals of 10
[4] = 125 mg/kg F, end of recovery, animals of 5

With `COC1=C(OC)C(=O)C(C/C=C(\C)CC/C=C(\C)CC/C=C(\C)CC/C=C(\C)CC/C=C(\C)CC/C=C(\C)CC/C=C(\C)CC/C=C(\C)CC/C=C(\C)CCC=C(C)C)=C(C)C1=O` [CoQ10, Coenzyme Q10] the “Spleen Histiocytic Infiltration, Mild” value [1] was 0, the “Spleen Histiocytic Infiltration, Moderate” value [1] was 1 and the ALT (62.5 mg/kg M, end of recovery) was 20 IU/L. The APPT (62.5 mg/kg M, end of recovery) was 16.7 s, the AST (62.5 mg/kg M, end of recovery) was 79 IU/L and the “Body Weight, percent difference from controls” value (from here on “Body Weight, percent difference”) (62.5 mg/kg M, end of recovery) was “+7.4%”. The “Food Consumption, percent difference from controls” value (62.5 mg/kg M, end of recovery) was “+5.8%”, the GGT (62.5 mg/kg M, end of recovery) was 0.00 IU/L and the “Liver weight (absolute), percent difference from controls” value (62.5 mg/kg M, end of recovery) was “+5.0%”. The “Spleen weight (absolute), percent difference from controls” value (62.5 mg/kg M, end of recovery) was −22.2%, the “Adrenal Gland Vacuolation” value [2] was 5 and the “Adrenal Gland Vacuolation, Marked” value [2] was 0. For the same compound, the “Adrenal Gland Vacuolation, Mild” value [2] was 3, the “Adrenal Gland Vacuolation, Minimal” value [2] was 2 and the “Adrenal Gland Vacuolation, Moderate” value [2] was 0. For the same compound, the “Gross Pathology: Enlarged Spleen” value [2] was 0, the “Gross Pathology: Pale Iliac Lymph Node” value [2] was 2 and the “Gross Pathology: Pale Liver” value [2] was 2. The “Gross Pathology: Pale Pancreatic Lymph Node” value [2] was 1, the “Liver Focal Necrosis” value [2] was 0 and the “Liver Focal Necrosis, Mild” value [2] was 0. The “Liver Focal Necrosis, Minimal” value [2] was 0, the “Liver Histiocytic Infiltration” value [2] was 1 and the “Liver Histiocytic Infiltration, Mild” value [2] was 0. For the same compound, the “Liver Histiocytic Infiltration, Minimal” value [2] was 1, the “Liver Histiocytic Infiltration, Moderate” value [2] was 0 and the “Liver Multifocal Necrosis” value [2] was 0. For the same compound, the “Liver Multifocal Necrosis, Mild” value [2] was 0, the “Liver Multifocal Necrosis, Moderate” value [2] was 0 and the “Liver Vacuolation” value [2] was 5. For the same compound, the “Liver Vacuolation, Mild” value [2] was 1, the “Liver Vacuolation, Minimal” value [2] was 4 and the “Liver Vacuolation, Moderate” value [2] was 0. The “Lymph Node, Man. Histiocytic Infiltration” value [2] was 4, the “Lymph Node, Man. Histiocytic Infiltration, Mild” value [2] was 0 and the “Lymph Node, Man. Histiocytic Infiltration, Minimal” value [2] was 4. For the same compound, the “Lymph Node, Man. Histiocytic Infiltration, Moderate” value [2] was 0, the “Lymph Node, Mes. Histiocytic Infiltration” value [2] was 5 and the “Lymph Node, Mes. Histiocytic Infiltration, Mild” value [2] was 1. For the same compound, the “Lymph Node, Mes. Histiocytic Infiltration, Minimal” value [2] was 4, the “Spleen Histiocytic Infiltration” value [2] was 2 and the “Spleen Histiocytic Infiltration, Marked” value [2] was 0. For the same compound, the “Spleen Histiocytic Infiltration, Mild” value [2] was 0, the “Spleen Histiocytic Infiltration, Minimal” value [2] was 2 and the “Spleen Histiocytic Infiltration, Moderate” value [2] was 0. For the same compound, the “Died or Sacrificed Moribund” value (125 mg/kg F) was 0, the ALT (125 mg/kg F, end of dosing) was 20 IU/L and the APPT (125 mg/kg F, end of dosing) was 14.4* seconds. The AST (125 mg/kg F, end of dosing) was 76* IU/L, the “Body Weight, percent difference” value (125 mg/kg F, end of dosing) was −5.5% and the Eosinophils (125 mg/kg F, end of dosing) was 0.08 10^3/cmm. The Erythrocytes (125 mg/kg F, end of dosing) was 6.90* 10^6/cmm, the “Food Consumption, percent difference from controls” value (125 mg/kg F, end of dosing) was −12.5* % and the GGT (125 mg/kg F, end of dosing) was 0.53 IU/L. For the same compound, the Hematocrit (125 mg/kg F, end of dosing) was 39.1* %, the Hemoglobin (125 mg/kg F, end of dosing) was 13.5 g/dL and the Leukocytes (125 mg/kg F, end of dosing) was 9.49 10^3/cmm. The “Liver weight (absolute), percent difference from controls” value (125 mg/kg F, end of dosing) was −0.6%, the Lymphocytes (125 mg/kg F, end of dosing) was 7.35 10^3/cmm and the Neutrophils (125 mg/kg F, end of dosing) was 1.64 10^3/cmm. The “Spleen weight (absolute), percent difference from controls” value (125 mg/kg F, end of dosing) was −11.2%, the “Bone Marrow, Sternum Hyperplasia” value [3] was 0 and the “Bone Marrow, Sternum Hyperplasia, Mild” value [3] was 0. The “Bone Marrow, Sternum Hyperplasia, Minimal” value [3] was 0, the “Gross Pathology: Enlarged Pancreatic Lymph Nodes” value [3] was 1 and the “Gross Pathology: Pale Adrenal” value [3] was 0. For the same compound, the “Gross Pathology: Pale Liver” value [3] was 10, the “Gross Pathology: Pale Lymph Nodes” value [3] was 0 and the “Gross Pathology: Pale Ovaries” value [3] was 1. The “Gross Pathology: Pale Pituitary” value [3] was 0, the “Gross Pathology: Pale SQ Skin” value [3] was 3 and the “Liver Focal Necrosis” value [3] was 0. The “Liver Focal Necrosis, Minimal” value [3] was 0, the “Liver Histiocytic Infiltration” value [3] was 9 and the “Liver Histiocytic Infiltration, Mild” value [3] was 7. The “Liver Histiocytic Infiltration, Minimal” value [3] was 1, the “Liver Histiocytic Infiltration, Moderate” value [3] was 1 and the “Liver Vacuolation” value [3] was 10. For the same compound, the “Liver Vacuolation, Mild” value [3] was 4, the “Liver Vacuolation, Minimal” value [3] was 6 and the “Lymph Node, Man. Histiocytic Infiltration” value [3] was 3. The “Lymph Node, Man. Histiocytic Infiltration, Mild” value [3] was 0, the “Lymph Node, Man. Histiocytic Infiltration, Minimal” value [3] was 2 and the “Lymph Node, Man. Histiocytic Infiltration, Moderate” value [3] was 1. For the same compound, the “Lymph Node, Mes. Histiocytic Infiltration” value [3] was 10, the “Lymph Node, Mes. Histiocytic Infiltration, Mild” value [3] was 5 and the “Lymph Node, Mes. Histiocytic Infiltration, Minimal” value [3] was 5. The “Lymph Node, Mes. Histiocytic Infiltration, Moderate” value [3] was 0, the “Ovary Histiocytic Infiltration” value [3] was 10 and the “Ovary Histiocytic Infiltration, Mild” value [3] was 0. For the same compound, the “Ovary Histiocytic Infiltration, Minimal” value [3] was 10, the “Ovary Histiocytic Infiltration, Moderate” value [3] was 0 and the “Skin, Dermis Histiocytic Infiltration” value [3] was 2. The “Skin, Dermis Histiocytic Infiltration, Marked” value [3] was 0, the “Skin, Dermis Histiocytic Infiltration, Mild” value [3] was 1 and the “Skin, Dermis Histiocytic Infiltration, Moderate” value [3] was 1. The “Skin, SQ Histiocytic Infiltration” value [3] was 2, the “Skin, SQ Histiocytic Infiltration, Mild” value [3] was 2 and the “Spleen Histiocytic Infiltration” value [3] was 9. For the same compound, the “Spleen Histiocytic Infiltration, Marked” value [3] was 1, the “Spleen Histiocytic Infiltration, Mild” value [3] was 4 and the “Spleen Histiocytic Infiltration, Moderate” value [3] was 3. For the same compound, the ALT (125 mg/kg F, end of recovery) was 21 IU/L, the APPT (125 mg/kg F, end of recovery) was 15.4 s and the AST (125 mg/kg F, end of recovery) was 68 IU/L. For the same compound, the “Body Weight, percent difference” value (125 mg/kg F, end of recovery) was −3.9%, the “Food Consumption, percent difference from controls” value (125 mg/kg F, end of recovery) was −10.5% and the GGT (125 mg/kg F, end of recovery) was 0.63* IU/L. The “Liver weight (absolute), percent difference from controls” value (125 mg/kg F, end of recovery) was “+3.5%”, the “Spleen weight (absolute), percent difference from controls” value (125 mg/kg F, end of recovery) was −3.4% and the “Adrenal Gland Vacuolation” value [4] was 5. The “Adrenal Gland Vacuolation, Marked” value [4] was 0, the “Adrenal Gland Vacuolation, Mild” value [4] was 4 and the “Adrenal Gland Vacuolation, Minimal” value [4] was 0. For the same compound, the “Adrenal Gland Vacuolation, Moderate” value [4] was 1, the “Gross Pathology: Enlarged Spleen” value [4] was 0 and the “Gross Pathology: Pale Iliac Lymph Node” value [4] was 3. For the same compound, the “Gross Pathology: Pale Liver” value [4] was 5, the “Gross Pathology: Pale Ovaries” value [4] was 0 and the “Gross Pathology: Pale Pancreatic Lymph Node” value [4] was 2. The “Liver Focal Necrosis” value [4] was 0, the “Liver Focal Necrosis, Mild” value [4] was 0 and the “Liver Focal Necrosis, Minimal” value [4] was 0. For the same compound, the “Liver Histiocytic Infiltration” value [4] was 5, the “Liver Histiocytic Infiltration, Mild” value [4] was 3 and the “Liver Histiocytic Infiltration, Minimal” value [4] was 2. The “Liver Histiocytic Infiltration, Moderate” value [4] was 0, the “Liver Multifocal Necrosis” value [4] was 1 and the “Liver Multifocal Necrosis, Mild” value [4] was 1. For the same compound, the “Liver Multifocal Necrosis, Moderate” value [4] was 0, the “Liver Vacuolation” value [4] was 5 and the “Liver Vacuolation, Mild” value [4] was 4. For the same compound, the “Liver Vacuolation, Minimal” value [4] was 0, the “Liver Vacuolation, Moderate” value [4] was 1 and the “Lymph Node, Man. Histiocytic Infiltration” value [4] was 1. The “Lymph Node, Man. Histiocytic Infiltration, Mild” value [4] was 0, the “Lymph Node, Man. Histiocytic Infiltration, Minimal” value [4] was 2 and the “Lymph Node, Man. Histiocytic Infiltration, Moderate” value [4] was 0. The “Lymph Node, Mes. Histiocytic Infiltration” value [4] was 5, the “Lymph Node, Mes. Histiocytic Infiltration, Mild” value [4] was 1 and the “Lymph Node, Mes. Histiocytic Infiltration, Minimal” value [4] was 4. The “Ovary Histiocytic Infiltration” value [4] was 5, the “Ovary Histiocytic Infiltration, Mild” value [4] was 2 and the “Ovary Histiocytic Infiltration, Minimal” value [4] was 3. The “Ovary Histiocytic Infiltration, Moderate” value [4] was 0, the “Spleen Histiocytic Infiltration” value [4] was 2 and the “Spleen Histiocytic Infiltration, Marked” value [4] was 0. For the same compound, the “Spleen Histiocytic Infiltration, Mild” value [4] was 0, the “Spleen Histiocytic Infiltration, Minimal” value [4] was 2 and the “Spleen Histiocytic Infiltration, Moderate” value [4] was 0. The “Died or Sacrificed Moribund” value (125 mg/kg M) was 0, the ALT (125 mg/kg M, end of dosing) was 25 IU/L and the APPT (125 mg/kg M, end of dosing) was 15.9* seconds. For the same compound, the AST (125 mg/kg M, end of dosing) was 83 IU/L, the “Body Weight, percent difference” value (125 mg/kg M, end of dosing) was −8.7* % and the Eosinophils (125 mg/kg M, end of dosing) was 0.08 10^3/cmm.
